biological target: HCV RNA-dependent RNA polymerase (NS5B) (Hepatitis C virus genotype 1b (isolate BK) (HCV), UniProt P26663); assay: RNA-Dependent RNA HCV NS5B (polymerase) Assay and IC50 Determination; assay type: biochemical; details: purified HCV NS5B polymerase, polyA:U16 substrate, 32P-UTP incorporation; read-out: IC50
Summary of the method: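 Purified NS5B was incubated with 0.5 uM polyA:U16, 10 μM UTP plus ^32P-UTP in 50 mM Hepes-KOH pH 7.5, 5 mM MgCl2, 5 mM DTT, 2% glycerol and 0.01% Triton X-100. Inhibitor reactions ran 60 min at 37° C, and radiolabelled RNA product was quantified after filter capture. IC50 values were obtained from concentration series.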

HCV RNA-dependent RNA polymerase (NS5B), sequence (P26663 2420-3010): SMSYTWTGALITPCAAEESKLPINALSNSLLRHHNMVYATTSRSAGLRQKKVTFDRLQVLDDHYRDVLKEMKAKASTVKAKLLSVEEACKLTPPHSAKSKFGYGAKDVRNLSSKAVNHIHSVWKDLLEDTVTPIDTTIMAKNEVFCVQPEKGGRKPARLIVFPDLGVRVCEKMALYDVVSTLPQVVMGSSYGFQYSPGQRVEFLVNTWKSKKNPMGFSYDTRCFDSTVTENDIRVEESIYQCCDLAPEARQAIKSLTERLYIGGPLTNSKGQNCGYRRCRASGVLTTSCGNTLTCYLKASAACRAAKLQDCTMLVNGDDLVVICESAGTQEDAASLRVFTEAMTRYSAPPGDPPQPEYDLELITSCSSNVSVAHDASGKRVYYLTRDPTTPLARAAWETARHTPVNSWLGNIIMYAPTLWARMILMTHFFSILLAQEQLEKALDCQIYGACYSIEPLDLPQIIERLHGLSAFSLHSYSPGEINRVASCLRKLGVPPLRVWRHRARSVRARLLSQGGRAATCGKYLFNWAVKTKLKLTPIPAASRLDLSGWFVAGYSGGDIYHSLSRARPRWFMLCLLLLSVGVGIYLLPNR

`CNC(=O)c1c(-c2ccc(F)cc2)oc2cc(N(CCCOCCOCc3cccc(C(C)=O)c3)S(C)(=O)=O)c(C3CC3)cc12` [Compound 03-6A, 6-(N-(3-(2-((3-acetylbenzyl)-oxy)-ethoxy)-propyl)-methylsulfonamido)-5-cyclopropyl-2-(4-fluorophenyl)-N-methylbenzofuran-3-carboxamide] and `CNC(=O)c1c(-c2ccc(F)cc2)oc2cc(N(CCOCCOCCOCc3cccc(C(C)=O)c3)S(C)(=O)=O)c(C3CC3)cc12` [Compound 02-8B, 6-[(2-{2-[2-(3-Acetyl-benzyloxy)-ethoxy]-ethoxy}-ethyl)-methanesulfonyl-amino]-5-cyclopropyl-2-(4-fluoro-phenyl)-benzofuran-3-carboxylic Acid Methylamide] cannot be ordered by IC50: > 1 µM for the first, > 1 µM for the second.

`CCCCOCCOCCOCCN(c1cc2oc(-c3ccc(F)cc3)c(C(=O)NC)c2cc1C1CC1)S(C)(=O)=O` [Compound 05-4B, 6-({2-[2-(2-Butoxy-ethoxy)-ethoxy]-ethyl}-methanesulfonyl-amino)-5-cyclopropyl-2-(4-fluoro-phenyl)-benzofuran-3-carboxylic Acid Methylamide] and `CNC(=O)c1c(-c2ccc(F)cc2)oc2cc(N(CCOCCOCCOCCN)S(C)(=O)=O)c(C3CC3)cc12` [Compound 04-10, 6-(N-(2-(2-(2-(2-Aminoethoxy)-ethoxy)-ethoxy)-ethyl)-methylsulfonamido)-5-cyclopropyl-2-(4-fluorophenyl)-N-methylbenzofuran-3-carboxamide] cannot be ordered by IC50: > 1 µM for the first, > 1 µM for the second.

`CNC(=O)c1c(-c2ccc(F)cc2)oc2cc(N(CCOCCOCc3ccc(C(=O)O)c(C)c3)S(C)(=O)=O)c(C3CC3)cc12` [Compound 18-10A, 4-[2-(2-{[5-Cyclopropyl-2-(4-fluoro-phenyl)-3-methylcarbamoyl-benzofuran-6-yl]-methanesulfonyl-amino}-ethoxy)-ethoxymethyl]-2-methyl-benzoic Acid] and `CNC(=O)c1c(-c2ccc(F)cc2)oc2cc(N(CCOCCOCc3ccc(C(=O)OC)c(N)c3)S(C)(=O)=O)c(C3CC3)cc12` [Compound 29-9, 2-Amino-4-[2-(2-{[5-cyclopropyl-2-(4-fluoro-phenyl)-3-methylcarbamoyl-benzofuran-6-yl]-methanesulfonyl-amino}-ethoxy)-ethoxymethyl]-benzoic Acid Methyl Ester] fall in the same range of IC50: 0.1 to 1 µM for the first, 0.1 to 1 µM for the second.

Going from `CNC(=O)c1c(-c2ccc(F)cc2)oc2cc(N(CCOCCOCCOCc3cccc(C(=O)O)c3)S(C)(=O)=O)c(C3CC3)cc12` [Compound 06-7F, 3-{2-[2-(2-{[5-Cyclopropyl-2-(4-fluoro-phenyl)-3-methylcarbamoyl-benzofuran-6-yl]-methanesulfonyl-amino}-ethoxy)-ethoxy]-ethoxymethyl}-benzoic Acid] to `CNC(=O)c1c(-c2ccc(F)cc2)oc2cc(N(CCOCCOCCOCc3cccc(C(=O)OC)c3)S(C)(=O)=O)c(C3CC3)cc12` [Compound 06-6F, 3-{2-[2-(2-{[5-Cyclopropyl-2-(4-fluoro-phenyl)-3-methylcarbamoyl-benzofuran-6-yl]-methanesulfonyl-amino}-ethoxy)-ethoxy]-ethoxymethyl}-benzoic acid methyl ester], the IC50 rises from < 0.1 µM to > 1 µM.

`CNC(=O)c1c(-c2ccc(F)cc2)oc2cc(N(CCOCCCCCOC(C)C(=O)O)S(C)(=O)=O)c(C3CC3)cc12` (stereo not drawn) [Compound 27-9B, 2-[5-(2-{[5-Cyclopropyl-2-(4-fluoro-phenyl)-3-methylcarbamoyl-benzofuran-6-yl]-methanesulfonyl-amino}-ethoxy)-pentyloxy]-propionic Acid] and `CNC(=O)c1c(-c2ccc(F)cc2)oc2cc(N(CCOCCOCCCc3ccc(C(=O)O)cc3)S(C)(=O)=O)c(C3CC3)cc12` [Compound 12-7C, 4-{3-[2-(2-{[5-Cyclopropyl-2-(4-fluoro-phenyl)-3-methylcarbamoyl-benzofuran-6-yl]-methanesulfonyl-amino}-ethoxy)-ethoxy]-propyl}-benzoic Acid] fall in the same range of IC50: 0.1 to 1 µM for the first, 0.1 to 1 µM for the second.

First: CCCCCOC(=O)c1ccc(COCCOCCN(c2cc3oc(-c4ccc(F)cc4)c(C(=O)NC)c3cc2C2CC2)S(C)(=O)=O)cc1 [Compound 06-8B4, 4-[2-(2-{[5-Cyclopropyl-2-(4-fluoro-phenyl)-3-methylcarbamoyl-benzofuran-6-yl]-methanesulfonyl-amino}-ethoxy)-ethoxymethyl]-benzoic Acid Pentyl Ester]
Second: CCOC(=O)c1ccc(COCCOCCN(c2cc3oc(-c4ccc(F)cc4)c(C(=O)NC)c3cc2C2CC2)S(C)(=O)=O)cc1 [Compound 06-8B1, 4-[2-(2-{[5-Cyclopropyl-2-(4-fluoro-phenyl)-3-methylcarbamoyl-benzofuran-6-yl]-methanesulfonyl-amino}-ethoxy)-ethoxymethyl]-benzoic Acid Ethyl Ester]
The IC50 of the first is lower: 0.1 to 1 µM for the first, > 1 µM for the second. The first is the more potent here.

First: CNC(=O)c1c(-c2ccc(F)cc2)oc2cc(N(CCOCCOCCCc3ccccc3C(=O)OC)S(C)(=O)=O)c(C3CC3)cc12 [Compound 12-6A, 2-{3-[2-(2-{[5-Cyclopropyl-2-(4-fluoro-phenyl)-3-methylcarbamoyl-benzofuran-6-yl]-methanesulfonyl-amino}-ethoxy)-ethoxy]-propyl}-benzoic Acid Methyl Ester]
Second: CNC(=O)c1c(-c2ccc(F)cc2)oc2cc(N(CCOCCOCCOc3ccccc3C(=O)O)S(C)(=O)=O)c(C3CC3)cc12 [Compound 14-7A, 2-{2-[2-(2-{[5-Cyclopropyl-2-(4-fluoro-phenyl)-3-methylcarbamoyl-benzofuran-6-yl]-methanesulfonyl-amino}-ethoxy)-ethoxy]-ethoxy}-benzoic Acid]
The IC50 of the first is higher: 0.1 to 1 µM for the first, < 0.1 µM for the second. The second is the more potent here.

First: CNC(=O)c1c(-c2ccc(F)cc2)oc2cc(N(CCOCCOCCOCc3ccc(C(=O)OC)cc3)S(C)(=O)=O)c(C3CC3)cc12 [Compound 06-6E, 4-{2-[2-(2-{[5-Cyclopropyl-2-(4-fluoro-phenyl)-3-methylcarbamoyl-benzofuran-6-yl]-methanesulfonyl-amino}-ethoxy)-ethoxy]-ethoxymethyl}-benzoic acid methyl ester]
Second: CNC(=O)c1c(-c2ccc(F)cc2)oc2cc(N(CCOCCOCCOCc3ccc(C(=O)O)cc3)S(C)(=O)=O)c(C3CC3)cc12 [Compound 30-7, 4-{2-[2-(2-{[5-Cyclopropyl-2-(4-fluoro-phenyl)-3-methylcarbamoyl-benzofuran-6-yl]-methanesulfonyl-amino}-ethoxy)-ethoxy]-ethoxymethyl}-benzoic acid]
The IC50 of the first is lower: 0.1 to 1 µM for the first, > 1 µM for the second. The first is the more potent here.

`CNC(=O)c1c(-c2ccc(F)cc2)oc2cc(N(CCCCCOCc3ccc(C(=O)OC)cc3)S(C)(=O)=O)c(C3CC3)cc12` [Compound 16-6, 4-(5-{[5-Cyclopropyl-2-(4-fluoro-phenyl)-3-methylcarbamoyl-benzofuran-6-yl]-methanesulfonyl-amino}-pentyloxymethyl)-benzoic Acid Methyl Ester] and `CNC(=O)c1c(-c2ccc(F)cc2)oc2cc(N(CCOCCOCc3cccc(C(=O)OC)c3)S(C)(=O)=O)c(C3CC3)cc12` [Compound 06-6C, 3-[2-(2-{[5-Cyclopropyl-2-(4-fluoro-phenyl)-3-methylcarbamoyl-benzofuran-6-yl]-methanesulfonyl-amino}-ethoxy)-ethoxymethyl]-benzoic acid methyl ester] cannot be ordered by IC50: > 1 µM for the first, > 1 µM for the second.

`CNC(=O)c1c(-c2ccc(F)cc2)oc2cc(N(CCOCCOCCOCC(=O)OC(C)(C)C)S(C)(=O)=O)c(C3CC3)cc12` [Compound 23-5A, {2-[2-(2-{[5-Cyclopropyl-2-(4-fluoro-phenyl)-3-methylcarbamoyl-benzofuran-6-yl]-methanesulfonyl-amino}-ethoxy)-ethoxy]-ethoxy}-acetic Acid Tert-butyl Ester] and `CNC(=O)c1c(-c2ccc(F)cc2)oc2cc(N(CCOCCOCCOCCOC)S(C)(=O)=O)c(C3CC3)cc12` [Compound 05-4A, 6-(N-(2,5,8,11-Tetraoxatridecan-13-yl)-methylsulfonamido)-5-cyclopropyl-2-(4-fluorophenyl)-N-methylbenzofuran-3-carboxamide] cannot be ordered by IC50: > 1 µM for the first, > 1 µM for the second.

First: CNC(=O)c1c(-c2ccc(F)cc2)oc2cc(N(CCOCCCc3cccc(C(C)=O)c3)S(C)(=O)=O)c(C3CC3)cc12 [Compound 30-5, 6-({2-[3-(3-Acetyl-phenyl)-propoxy]-ethyl}-methanesulfonyl-amino)-5-cyclopropyl-2-(4-fluoro-phenyl)-benzofuran-3-carboxylic acid methylamide]
Second: CNC(=O)c1c(-c2ccc(F)cc2)oc2cc(N(CCCOCCOCc3cccc(C(=O)/C=C(\O)C(=O)O)c3)S(C)(=O)=O)c(C3CC3)cc12 [Compound 03-8A, 4-{3-[2-(3-{[5-Cyclopropyl-2-(4-fluoro-phenyl)-3-methylcarbamoyl-benzofuran-6-yl]-methanesulfonyl-amino}-propoxy)-ethoxymethyl]-phenyl}-2-hydroxy-4-oxo-but-2-enoic Acid]
The IC50 of the first is higher: > 1 µM for the first, 0.1 to 1 µM for the second.

`CCOC(=O)/C(O)=C/C(=O)c1ccc(COCCOCCOCCOCCN(c2cc3oc(-c4ccc(F)cc4)c(C(=O)NC)c3cc2C2CC2)S(C)(=O)=O)cc1` [Compound 02-9H, 4-[4-(2-{2-[2-(2-{[5-Cyclopropyl-2-(4-fluoro-phenyl)-3-methylcarbamoyl-benzofuran-6-yl]-methanesulfonyl-amino}-ethoxy)-ethoxy]-ethoxy}-ethoxymethyl)-phenyl]-2-hydroxy-4-oxo-but-2-enoic Acid Ethyl Ester] and `CNC(=O)c1c(-c2ccc(F)cc2)oc2cc(N(CCNC(=O)CNC(=O)c3cccc(CCCC(=O)O)c3)S(C)(=O)=O)c(C3CC3)cc12` [Compound 07-10, 4-(3-{[(2-{[5-Cyclopropyl-2-(4-fluoro-phenyl)-3-methylcarbamoyl-benzofuran-6-yl]-methanesulfonyl-amino}-ethylcarbamoyl)-methyl]-carbamoyl}-phenyl)-butyric Acid] cannot be ordered by IC50: > 1 µM for the first, > 1 µM for the second.
